From patent publication US7732604B2, “Triazolopyrazine derivatives” (Pfizer Inc., priority 2006, dated 2010)
Structures can show the parent of a compound that is named as a salt.

Target: T1, HGFR (Homo sapiens, UniProt P08581)
T1 construct: purchased Upstate 14-526
Experiment: HGFR continuous-coupled spectrophotometric assay (tyrosine kinase activity on Met-2 substrate peptide)
Format: biochemical
Details: HGFR 50 nM, Met-2 peptide 0.5 mM, ATP 300 μM, 37° C., absorbance 340 nm; read-out: Ki

T1 sequence (P08581 974-1390 limits assumed): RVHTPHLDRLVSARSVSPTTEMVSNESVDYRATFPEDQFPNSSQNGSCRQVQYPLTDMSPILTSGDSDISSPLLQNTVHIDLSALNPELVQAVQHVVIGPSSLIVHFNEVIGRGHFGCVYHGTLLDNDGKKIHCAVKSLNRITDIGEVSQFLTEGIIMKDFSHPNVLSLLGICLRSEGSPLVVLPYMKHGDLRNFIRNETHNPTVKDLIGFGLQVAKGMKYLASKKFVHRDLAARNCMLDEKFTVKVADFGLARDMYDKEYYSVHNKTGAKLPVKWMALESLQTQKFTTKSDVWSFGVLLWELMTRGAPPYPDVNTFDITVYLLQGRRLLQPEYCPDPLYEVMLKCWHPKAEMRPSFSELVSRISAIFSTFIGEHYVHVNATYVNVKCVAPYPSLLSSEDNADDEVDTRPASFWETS

Row | Ki [nM] | SMILES
1 | 30 | CC(c1ccc2c(c1)OCCO2)n1nnc2ncc(-c3cnn(C)c3)nc21 (stereo in doubt) [Example 60, 1-[(S)-1-(2,3-Dihydro-benzo[1,4]dioxin-6-yl)-ethyl]-6-(1-methyl-1H-pyrazol-4-yl)-1H-[1,2,3]triazolo[4,5-b]pyrazine]
2 | 41 | CC(CO)Nc1cnc2nnn(Cc3ccc4ncccc4c3)c2n1 (stereo in doubt) [Example 120, (2R)-2-{[1-(quino-lin-6-yl-methyl)-1H-[1,2,3]tri-azolo[4,5-b]pyra-zin-6-yl]ami-no}propan-1-ol]
3 | 30 | N#CC1CCN(C2CCN(c3cnc4nnn(Cc5ccc6ncccc6c5)c4n3)C2)CC1 (stereo in doubt) [Example 148, 1-{(3R)-1-[1-(quino-lin-6-yl-methyl)-1H-[1,2,3]tri-azolo[4,5-b]pyra-zin-6-yl]pyrro-lidin-3-yl}pipe-ridine-4-carbo-nitrile]
4 | 21 | OC1CCN(C2CCN(c3cnc4nnn(Cc5ccc6ncccc6c5)c4n3)C2)CC1 (stereo in doubt) [Example 170, 1-[(3R)-1-[1-(quino-lin-6-yl-methyl)-1H-[1,2,3]tri-azolo[4,5-b]pyra-zin-6-yl]pyrro-lidin-3-yl}pipe-ridin-4-ol]
5 | 42 | CC(c1ccc2ncccc2c1)n1nnc2ncc(Br)nc21 (stereo in doubt) [Example 212, 6-[(S)-1-(6-Bromo-[1,2,3]triazolo [4,5-b]pyrazin-1-yl)-ethyl]-quinoline]
6 | 45 | CN(C)C1CCN(c2cnc3nnn(Cc4ccc5ncccc5c4)c3n2)CC1 [Example 27]
7 | 15 | OC1CCN(c2cnc3nnn(Cc4ccc5ncccc5c4)c3n2)CC1 [Example 28, 1-(3-(quinolin-6-ylmethyl)-3H-[1,2,3]triazolo[4,5-b]pyrazin-5-yl)piperidin-4-ol]
8 | 24 | CN(C)[C@H]1CCN(c2cnc3nnn(Cc4ccc5ncccc5c4)c3n2)C1 [Example 29, (S)-N,N-dimethyl-1-(3-(quinolin-6-ylmethyl)-3H-[1,2,3]triazolo[4,5-b]pyrazin-5-yl)pyrrolidin-3-amine]
9 | 8 | CN(C)[C@@H]1CCN(c2cnc3nnn(Cc4ccc5ncccc5c4)c3n2)C1 [Example 30, (R)-N,N-dimethyl-1-(3-(quinolin-6-ylmethyl)-3H-[1,2,3]triazolo[4,5-b]pyrazin-5-yl)pyrrolidin-3-amine]
10 | 59 | N[C@@H]1CCCN(c2cnc3nnn(Cc4ccc5ncccc5c4)c3n2)C1 [Example 31, (R)-1-(3-(quinolin-6-ylmethyl)-3H-[1,2,3]triazolo[4,5-b]pyrazin-5-yl)piperidin-3-amine dihydrochloride]
11 | 69 | N[C@H]1CCCN(c2cnc3nnn(Cc4ccc5ncccc5c4)c3n2)C1 [Example 32, (S)-1-(3-(quinolin-6-ylmethyl)-3H-[1,2,3]triazolo[4,5-b]pyrazin-5-yl)piperidin-3-amine dihydrochloride]
12 | 10 | c1cnc2ccc(Cn3nnc4ncc(N5CCNCC5)nc43)cc2c1 [Example 33, 6-((6-(piperazin-1-yl)-1H-[1,2,3]triazolo[4,5-b]pyrazin-1-yl)methyl)quinoline]
13 | 33 | CC(C)(C)OC(=O)NC1CCN(c2cnc3nnn(Cc4ccc5ncccc5c4)c3n2)CC1 [Example 34, tert-butyl 1-(3-(quinolin-6-ylmethyl)-3H-[1,2,3]triazolo[4,5-b]pyrazin-5-yl)piperidin-4-ylcarbamate]
14 | 2 | OCc1ccc(-c2cnc3nnn(Cc4ccc5ncccc5c4)c3n2)cc1 [Example 36, (4-(3-(quinolin-6-ylmethyl)-3H-[1,2,3]triazolo[4,5-b]pyrazin-5-yl)phenyl)methanol]
15 | 4 | OCc1cccc(-c2cnc3nnn(Cc4ccc5ncccc5c4)c3n2)c1 [Example 37, (3-(3-(quinolin-6-ylmethyl)-3H-[1,2,3]triazolo[4,5-b]pyrazin-5-yl)phenyl)methanol]
16 | 3 | NCc1ccc(-c2cnc3nnn(Cc4ccc5ncccc5c4)c3n2)cc1 [Example 38, (4-(3-(quinolin-6-ylmethyl)-3H-[1,2,3]triazolo[4,5-b]pyrazin-5-yl)phenyl)methanamine]
17 | 21 | O=C(O)c1ccc(-c2cnc3nnn(Cc4ccc5ncccc5c4)c3n2)cc1Cl [Example 39, 2-chloro-4-(3-(quinolin-6-ylmethyl)-3H-[1,2,3]triazolo[4,5-b]pyrazin-5-yl)benzoic acid]
18 | 12 | O=C(O)c1cc(F)cc(-c2cnc3nnn(Cc4ccc5ncccc5c4)c3n2)c1 [Example 40, 3-fluoro-5-(3-(quinolin-6-ylmethyl)-3H-[1,2,3]triazolo[4,5-b]pyrazin-5-yl)benzoic acid]
19 | 36 | Brc1cnc2nnn(Cc3ccc4c(c3)CCO4)c2n1 [Example 41, 6-Bromo-1-(2,3-dihydro-benzofuran-5-ylmethyl)-1H-[1,2,3]triazolo[4,5-b]pyrazine]
20 | 80 | N[C@@H]1CCN(c2cnc3nnn(Cc4ccc5c(c4)CCO5)c3n2)C1 [Example 42, (R)-1-[3-(2,3-Dihydro-benzofuran-5-ylmethyl)-3H-[1,2,3]triazolo[4,5-b]pyrazin-5-yl]-pyrrolidin-3-ylamine]
21 | 45 | CN(C)[C@@H]1CCN(c2cnc3nnn(Cc4ccc5c(c4)CCO5)c3n2)C1 [Example 43, {(R)-1-[3-(2,3-Dihydro-benzofuran-5-ylmethyl)-3H-[1,2,3]triazolo[4,5-b]pyrazin-5-yl]-pyrrolidin-3-yl}-dimethyl-amine]
22 | 88 | CCc1cnc2nnn(Cc3ccc4ncccc4c3)c2n1 [Example 52, 6-(6-Ethyl-[1,2,3]triazolo[4,5-b]pyrazin-1-ylmethyl)-quinoline]
23 | 42 | CC(c1ccc2c(c1)OCCO2)n1nnc2ncc(Br)nc21 (stereo not shown) [Example 54, 6-Bromo-1-[1-(2,3-dihydro-benzo[1,4]dioxin-6-yl)-ethyl]-1H-[1,2,3]tiazolo[4,5-b]pyrazine]
24 | 37 | CC(c1ccc2c(c1)OCCO2)n1nnc2ncc(-c3cnn(C)c3)nc21 (stereo not shown) [Example 56, 1-[1-(2,3-Dihydro-benzo[1,4]dioxin-6-yl)-ethyl]-6-(1-methyl-1H-pyrazol-4-yl)-1H-[1,2,3]triazolo[4,5-b]pyrazine]

Further lines, the molecule ahead of its results:

Row | SMILES | Ki [nM]
25 | c1cnc2ccc(Cn3nnc4ncc(-c5cnn(C6CNC6)c5)nc43)cc2c1 [Example 1, 6-((6-(1-(azetidin-3-yl)-1H-pyrazol-4-yl)-1H-[1,2,3]-triazolo[4,5-b]pyrazin-1-yl)methyl)-quinoline] | 8
26 | NCCn1cc(-c2cnc3nnn(Cc4ccc5ncccc5c4)c3n2)cn1 [Example 2, 2-(4-(3-(quinolin-6-ylmethyl)-3H-[1,2,3]triazolo[4,5-b]pyrazin-5-yl)-1H-pyrazol-1-yl)ethanamine] | 11
27 | c1cnc2ccc(Cn3nnc4ncc(-c5cnn(CC6CCNCC6)c5)nc43)cc2c1 [Example 4] | 69
28 | COCCn1cc(-c2cnc3nnn(Cc4ccc5ncccc5c4)c3n2)cn1 [Example 6, 6-((6-(1-(2-methoxyethyl)-1H-pyrazol-4-yl)-1H-[1,2,3]triazolo[4,5-b]pyrazin-1-yl)methyl)-quinoline] | 11
29 | O=C(NC1CCNCC1)c1ccc(-c2cnc3nnn(Cc4ccc5ncccc5c4)c3n2)cc1 [Example 10, N-(piperidin-4-yl)-4-(3-(quinolin-6-ylmethyl)-3H-[1,2,3]triazolo[4,5-b]pyrazin-5-yl)benzamide] | 4
30 | NCCNC(=O)c1ccc(-c2cnc3nnn(Cc4ccc5ncccc5c4)c3n2)cc1 [Example 11, N-(2-aminoethyl)-4-(3-(quinolin-6-ylmethyl)-3H-[1,2,3]triazolo[4,5-b]pyrazin-5-yl)benzamide] | 4
31 | CN(C)CCN(C)C(=O)c1ccc(-c2cnc3nnn(Cc4ccc5ncccc5c4)c3n2)cc1 [Example 12, N-(2-(dimethylamino)ethyl)-N-methyl-4-(3-(quinolin-6-ylmethyl)-3H-[1,2,3]triazolo[4,5-b]pyrazin-5-yl)benzamide] | 38
32 | CN(C)CCNC(=O)c1ccc(-c2cnc3nnn(Cc4ccc5ncccc5c4)c3n2)cc1 [Example 13, N-(2-(dimethylamino)ethyl)-4-(3-(quinolin-6-ylmethyl)-3H-[1,2,3]triazolo[4,5-b]pyrazin-5-yl)benzamide] | 3
33 | CCOC(=O)c1cnn(-c2cnc3nnn(Cc4ccc5ncccc5c4)c3n2)c1 [Example 14, ethyl 1-(3-(quinolin-6-ylmethyl)-3H-[1,2,3]triazolo[4,5-b]pyrazin-5-yl)-1H-pyrazole-4-carboxylate] | 40
34 | Cc1cn(-c2cnc3nnn(Cc4ccc5ncccc5c4)c3n2)cn1 [Example 16, 6-((6-(4-methyl-1H-imidazol-1-yl)-1H-[1,2,3]triazolo[4,5-b]pyrazin-1-yl)methyl)-quinoline] | 3
35 | O=C(c1ccc(-c2cnc3nnn(Cc4ccc5ncccc5c4)c3n2)cc1)N1CCOCC1 [Example 17, morpholino(4-(3-(quinolin-6-ylmethyl)-3H-[1,2,3]triazolo[4,5-b]pyrazin-5-yl)phenyl)-methanone] | 46
36 | CNC(=O)c1cccc(-c2cnc3nnn(Cc4ccc5ncccc5c4)c3n2)c1 [Example 18, N-methyl-3-(3-(quinolin-6-ylmethyl)-3H-[1,2,3]triazolo[4,5-b]pyrazin-5-yl)benzamide] | 5
37 | CNC(=O)c1ccc(-c2cnc3nnn(Cc4ccc5ncccc5c4)c3n2)cc1 [Example 19, N-methyl-4-(3-(quinolin-6-ylmethyl)-3H-[1,2,3]triazolo[4,5-b]pyrazin-5-yl)benzamide] | 3
38 | COc1cccc(-c2cnc3nnn(Cc4ccc5ncccc5c4)c3n2)c1 [Example 20, 6-((6-(3-methoxyphenyl)-1H-[1,2,3]triazolo[4,5-b]pyrazin-1-yl)methyl)-quinoline] | 3
39 | COc1ccc(-c2cnc3nnn(Cc4ccc5ncccc5c4)c3n2)cc1 [Example 21, 6-((6-(4-methoxyphenyl)-1H-[1,2,3]triazolo[4,5-b]pyrazin-1-yl)methyl)-quinoline] | 4
40 | c1cnc2ccc(Cn3nnc4ncc(-n5cccn5)nc43)cc2c1 [Example 22, 6-((6-(1H-pyrazol-1-yl)-1H-[1,2,3]triazolo[4,5-b]pyrazin-1-yl)methyl)-quinoline] | 12
